Test results taken from EP4371976B1, “IONIZABLE LIPIDS AND LIPID NANOPARTICLES CONTAINING THEREOF” (Certest Biotec, S.L., priority 2022, dated 2024).

Key:
[1] = tested on: Female BALB/c mice; assay: Firefly luciferase expression (total flux, IVIS imaging) in mice after injection of mRNA-loaded LNPs; format: in vivo; details: for Total Flux: LNP 50:10:38.5:1.5; for protein expression in mice (transfection results): Figure 1 legend, LNPs containing RNA
Description: For in vivo administration, mRNA comprising in the 5' to 3' direction a sequence encoding for luciferase of SEQ ID NO:1, was encapsulated into LNPs following the procedure described in Hassett, K. J. et al., "Optimization of Lipid Nanoparticles for Intramuscular Administration of mRNA Vaccines", 2019, Mol. Ther. Nucleic Acid, vol. 15, pp. 1-11. Briefly, the purified mRNAs were first diluted in sodium citrate buffer at pH=4 at a final concentration of 266 µg/ml. Separately, a mixture of the ionizable lipid of the invention:DSPC (Merk 850365P):cholesterol (Sigma C3045):DMG-PEG2000 (Cayman 33945-1) were dissolved into ethanol at the respective molar percentages of 50:10:38.5:1.5, and with a lipid-nitrogen-to-phosphate ratio (N:P) ratio of 5,5:1.
The mRNA aqueous solution was then carefully added to the ethanol solution, and the resulted solution was homogenized by pipetting up and down for 4-5 times. The resulting LNPs were immediately diluted 1:1 with Tris buffer and dialyzed overnight against Tris buffer containing 15% sucrose. The resulting LNP solution was then collected, and the encapsulated mRNA was assessed by Quant-IT® Ribogreen (Invitrogen R11490) following the manufacturer's instructions.
Female BALB/c mice (Charles River Laboratories), 8-10-week-old, weighting 18-23 g, were acclimatized to new conditions upon arrival to experimental facilities for 3-7 days. Housing conditions were room temperature 20-24 °C, humidity 50-70 %, and light intensity 60 lux with a light-dark cycle of 12 hours.
For Firefly Luciferase activity measurement in mice, LNPs produced as indicated above (ionizable lipid:helper lipid: sterol:PEG-modified lipid → 50:10:38.5:1.5) and containing 5 µg of the indicated mRNA in 50 µl final volume, were injected intramuscularly.
From 4 to 72 hours after RNA-LPN inoculation mice were anaesthetized by inhalation with 4% of isoflurane using a vaporizer. The maintenance of the anaesthesia was performed at 1.5% of isoflurane. Then, D-luciferin (Quimigen, 12507) was injected intraperitoneally at 150 mg/kg, normally ~200 µL of the stock at 15 mg/mL in PBS for a 20 g mouse. Luciferase images were acquired 10 minutes after luciferin inoculation using the IVIS Lumina XRMS Imaging System following manufacturer's instructions.

[2] = Apparent pKa of LNPs comprising the ionizable lipid (Table 6); details: standard formulation 50:10:38.5:1.5
[3] = RNA encapsulation efficiency of LNPs by Quant-IT Ribogreen; format: physicochemical; details: for Encaps. efficiency (%): LNPs with luciferase mRNA, ionizable lipid:non-cationic lipid:sterol:PEG-modified lipid 50:10:38.5:1.5; for Encaps. efficiency: Table 8, LNP 50:10:38.5:1.5, luciferase mRNA
Summary of the method: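 Ribogreen dye assay per manufacturer quantified encapsulated mRNA. Particles were made by adding mRNA in water to the ethanol phase, then 1:1 Tris dilution and overnight dialysis into Tris/15% sucrose; final mRNA set to 100 µg/ml.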

[4] = Size distribution, polydispersity and Z-potential of LNPs by dynamic light scattering (Malvern Zetasizer); format: physicochemical
Description: The LNP solution was then adjusted to a final concentration of mRNA of 100 µg/ml. Size distribution, polydispersity and Z-potential were measured by dynamic light scattering (DLS) using Malvern Zetasizer Advance Lab Blue Label. RNA encapsulation was assessed by Quant-IT® Ribogreen following the manufacturer's instructions.

[5] = Table 8, mice, intramuscular, 5 µg luciferase mRNA in 50 µl
[6] = percentage of RNA entrapped in the LNP
[7] = Table 10, VC-LC-0431:DOPE:Cholesterol:DMG-PEG2000 50:10:38.5:1.5
[8] = LNPs, standard formulation 50:10:38.5:1.5, DLS

SMILES | Apparent pKa [2] | Encaps. efficiency (%) [3, 6] [%] | Encaps. efficiency [3] [%] | Encapsulation efficiency (%) [3, 7] [%] | P.D.I. [4, 8] | Particle size/ Ø (nm) [4, 8] [nm] | Z Potential (± D.E.) [mV] [4, 8] [mV] | P.D.I. [4, 7] | Particle size/ Ø (nm) [4, 7] | Z Potential (± D.E.) [mV] [4, 7] [mV] | encapsulation efficiency ([3]; Table 6, percentage of RNA entrapped in the LNP, LNP 50:10:38.5:1.5) [%] | Total Flux [1, 5] [p·s^-1] | Total flux (p·s^-1) ([1]; Table 10, mice, VC-LC-0431:DOPE:Cholesterol:DMG-PEG2000 50:10:38.5:1.5) | Total Flux ([1]; Table 6, in vivo after injection) | protein expression in mice (transfection results) [1]
CCCCCCCCCCCCCOC(=O)CCSCCC(C(=O)NC1CCN(C)CC1)C(=O)OC(CCCCCCCC)CCCCCCCC (centres unmarked) [VC-LC-0441] |  | 78.30 | 78.3 |  | 0.12 | 186.5 | -4.04 |  |  |  |  | 2.2E+07 |  |  | 
CCCCCCCCCCCCC(CCCCCCCCCC)COC(=O)CCSCCC(NC(=O)C(CCCCCC)CCCCCCCC)C(=O)NCCN(CC)CC (centres unmarked) [VC-LC-0487] |  | 62.43 | 62.43 |  | 0.17 | 156.3 | -9.59 |  |  |  |  | 6.9E+07 |  |  | 
CCCCCCCCCCCCCCOC(=O)CCSCCC(C(=O)NCCCn1ccnc1)C(=O)OC(CCCCCCCC)CCCCCCCC (centres unmarked) [VC-LC-0367] |  | 47.47 | 47.5 |  | 0.19 | 134.6 | -15.48 |  |  |  |  | 3.16E+07 |  |  | 
CCCCCCCCCCCCCCCCCC(=O)NC(CCSCCC(=O)OCCCCCCCCCCCCC)C(=O)NCCCN1CCOCC1 (centres unmarked) [VC-LC-0374] |  | 70.37 |  |  | 0.16 | 174.7 | -9.62 |  |  |  |  |  |  |  | good transfection results
CCCCCCCC#CCOC(=O)CCSCCC(C(=O)NC1CCN(C)CC1)C(=O)OC(CCCCCCCC)CCCCCCCC (centres unmarked) [VC-LC-0442] |  | 87.80 | 87.8 |  | 0.12 | 171.8 | -4.19 |  |  |  |  | 2.95E+07 |  |  | 
CCCCCCCC/C=C\CCCCCCCC(=O)NC(CCSCCC(=O)OCC(CCCCCCCCCC)CCCCCCCCCCCC)C(=O)NCCCN1CCOCC1 (centres unmarked) [VC-LC-0353] |  | 57.26 | 57.26 |  | 0.1 | 175.8 | -8.97 |  |  |  |  | 5.2E+07 |  |  | good transfection results
CCCCCCCC/C=C\CCCCCCCCOC(=O)CCSCCC(NC(=O)CCCCCCC/C=C\CCCCCCCC)C(=O)NCCCN1CCOCC1 (centres unmarked) [VC-LC-0355] |  | 81.58 | 81.6 |  | 0.3 | 242.2 | -4.71 |  |  |  |  | 2.39E+07 |  |  | good transfection results
CCCCCCCCCCCCC(CCCCCCCCCC)COC(=O)CCSCCC(NC(=O)C(CCCCCCCC)CCCCCCCCCC)C(=O)NCC1CCN(C)CC1 (centres unmarked) [VC-LC-0521] |  | 52.01 | 52.01 |  | 0.071 | 153.1 | -4.50 |  |  |  |  | 1.1E+08 |  |  | 
CCCCCCCCC(CCCCCC)COC(=O)CCSCCC(C(=O)NC1CCN(C)CC1)C(=O)OC(CCCCCCCC)CCCCCCCC (centres unmarked) [VC-LC-0439] |  | 91.14 | 91.1 |  | 0.1 | 144.8 | -6.48 |  |  |  |  | 2.39E+07 |  |  | 

Now from value to compound, other results behind:

Apparent pKa [2] | Encaps. efficiency (%) [3, 6] [%] | Encaps. efficiency [3] [%] | Encapsulation efficiency (%) [3, 7] [%] | P.D.I. [4, 8] | Particle size/ Ø (nm) [4, 8] [nm] | Z Potential (± D.E.) [mV] [4, 8] [mV] | P.D.I. [4, 7] | Particle size/ Ø (nm) [4, 7] | Z Potential (± D.E.) [mV] [4, 7] [mV] | encapsulation efficiency ([3]; Table 6, percentage of RNA entrapped in the LNP, LNP 50:10:38.5:1.5) [%] | SMILES | Total Flux [1, 5] [p·s^-1] | Total flux (p·s^-1) ([1]; Table 10, mice, VC-LC-0431:DOPE:Cholesterol:DMG-PEG2000 50:10:38.5:1.5) | Total Flux ([1]; Table 6, in vivo after injection) | protein expression in mice (transfection results) [1]
5.77 | 60.4 | 60.4 | 60.4 | 0.11 | 196.6 | -0.28 | 0.114 | 196,6 nm | -0.281 |  | CCCCCCCCC(CCCCCC)COC(=O)CCSCCC(NC(=O)C(CCCCCC)CCCCCCCC)C(=O)NC1CCN(C)CC1 (centres unmarked) [VC-LC-0431] | 9.92E+07 | 9.92E+07 |  | 
5.62 | 48.51 | 48.5 |  | 0.13 | 175.8 | -7.19 |  |  |  |  | CCCCCCCCC(CCCCCCCC)OC(=O)C(CSCCC(=O)OCCCCCCCC(C)C)CC(=O)NCCCn1ccnc1 (centres unmarked) [VC-LC-0296] | 4.7E+07 |  |  | 
6.53 | 26.96 |  |  | 0.16 | 173.7 | -14.52 |  |  |  | 26.96 | CCCCCCCCC(CCCCCCCC)OC(=O)C(CSCCC(=O)OCCCCCC)CC(=O)NCCCN1CCOCC1 (centres unmarked) [VC-LC-0550] |  |  | 3,4·10^7 p·s^-1 | 
6.75 | 76.52 | 76.5 |  | 0.10 | 167.4 | -3.61 |  |  |  |  | CCCCCCCCCCCCOC(=O)CCSCCC(C(=O)NC1CCN(C)CC1)C(=O)OC(CCCCCCCC)CCCCCCCC (centres unmarked) [VC-LC-0440] | 2.42E+07 |  |  | 
7.07 | 72.06 | 72.1 |  | 0.17 | 160.8 | -3.40 |  |  |  |  | CCCCCCCCC(CCCCCC)COC(=O)CCSCCC(NC(=O)C(CCCCCC)CCCCCCCC)C(=O)NCC1CCN(C)CC1 (centres unmarked) [VC-LC-0491] | 2.37E+07 |  |  | 
5.95 | 50.58 | 50.6 |  | 0.11 | 155.2 | -6.62 |  |  |  |  | CCCCCCCCCCC(CCCCCCCC)C(=O)NC(CCSCCC(=O)OCCCCCCCC(C)C)C(=O)NC1CCN(C)CC1 (centres unmarked) [VC-LC-0558] | 7.9E07 |  |  | 
6.51 | 29.06 | 29.06 |  | 0.15 | 155.3 | -11.66 |  |  |  |  | CCCCCCCCOC(=O)CCSCC(CC(=O)NCCCN1CCOCC1)C(=O)OC(CCCCCCCC)CCCCCCCC (centres unmarked) [VC-LC-0551] | 1.1E+08 |  |  | 
6.90 | 85.33 | 85.3 |  | 0.13 | 176.7 | -1.24 |  |  |  |  | CCCCCCCC/C=C\CCCCCCCCOC(=O)CCSCC(CC(=O)NC1CCN(C)CC1)C(=O)OCC(CCCCCC)CCCCCCCC (centres unmarked) [VC-LC-0539] | 3.6E+07 |  |  | 
 | 39.62 | 39.6 |  | 0.14 | 164.2 | -10.43 |  |  |  |  | CCCCCCCCCCCCCCCCCCOC(=O)CCSCC(CC(=O)NCCCN1CCOCC1)C(=O)OC(CCCCCCCC)CCCCCCCC (centres unmarked) [VC-LC-0546] | 2.54E+07 |  |  | 
 | 40.58 | 40.6 |  | 0.13 | 112.3 | -9.30 |  |  |  |  | CCCCCCCCC(CCCCCCCC)OC(=O)C(CSCCC(=O)OCCCCCC(C)C)CC(=O)NCCCn1ccnc1 (centres unmarked) [VC-LC-0302] | 7.9E+07 |  |  | 
 | 30.22 | 30.22 |  | 0.17 | 145.5 | -8.82 |  |  |  |  | CCCCCCCCC(CCCCCCCC)OC(=O)C(CSCCC(=O)OCCCCCC(C)C)CC(=O)NCCCN1CCOCC1 (centres unmarked) [VC-LC-0548] | 1.2E+08 |  |  | 
